Patent publication US20230346773A1, “USE OF PCSK9 INHIBITOR IN PREPARATION OF PRODUCT FOR TREATING MULTIPLE DISEASES” (priority 2020, published 2023)
Marks after values point to notes of the source that are not given here.

Legend:
[1] = test system: rabbit ear acne model; test: Rabbit ear acne model induced by 2% coal tar; assay type: in vivo, New Zealand rabbits; conditions: n = 10; for Skin thickness: rabbit ear epidermis; for Hair follicle area / Sebaceous gland diameter: rabbit ear; for Histological grading of acne: number of animals graded − / Histological grading of acne: number of animals graded 1+ / Histological grading of acne: number of animals graded 2+ / Histological grading of acne: number of animals graded 3+: right ear; for Histological grading of acne: number of animals graded −: grade 0: only loose keratinized cells in the infundibulum, without acne; for Histological grading of acne: number of animals graded 1+: grade 1: small amount of dense keratinized material, infundibulum not expanded; for Histological grading of acne: number of animals graded 2+: grade 2: moderately dense keratinized material extending to sebaceous glands, infundibulum expands; for Histological grading of acne: number of animals graded 3+: grade 3: extensive keratinized material, severe expansion of hair follicles
Source text: The inner side of the right ear of the rabbits was taken as the observation area, the left ear of all rabbits was used as the self-negative control, and 95% alcohol was applied. The inner side of the right ear of the model group and the treatment group were smeared with 2% coal tar (Alfa Aesar China Company, 2% coal tar solution made with 95% alcohol), and evenly applied to the opening of the ear canal on the inner side of the rabbit ear with a sterile cotton swab in a range of about 2 cm×2 cm, once a day, 0.5 mL each time. Then the previous application was wiped with warm water. […] 18 hours after the last coating, the samples were sacrificed, fixed in 10% formaldehyde, embedded in paraffin, and stained with HE for histopathological analysis.
Histological grading standard of the acne model: […], according to histology. Grade 0 means that there are only loose keratinized cells in the infundibulum, without acne forming the “1”; grade 1: the skin on the surface of the rabbit ear is red, or a small amount of dense keratinized material is seen in the infundibulum of the hair follicle, and the infundibulum is not expanded “+”; grade 2: moderately dense keratinized material is seen in the infundibulum of the hair follicle, and it extends to the sebaceous glands, with the proliferation of sebaceous gland ducts, the infundibulum expands by “2+”; grade 3: extensive keratinized material in the hair follicle. Tight keratin embolism in hair follicles causes severe expansion of hair follicles, obvious hyperplasia of sebaceous duct epithelium, skin bulges and scars, and some sebaceous glands degenerate into “3+”.
Histopathological changes were observed under a microscope, and the thickness of 5 different epidermises on a slice was measured with the Biomias99 image analysis system, and the average value was calculated; the area of two hair follicles with the same position and the most complete structure and the diameter of four sebaceous glands were detected, and the average value of each was calculated, and then the data of the left and right external auditory canals of each group were subtracted to obtain the difference in the thickness of the epidermis, the difference in hair follicle area and the diameter of the sebaceous gland in the left and right ears of each rabbit.

[2] = test system: hair follicles / hair growth in depilated C57BL/6 mice; test: Hair growth in C57BL/6 mice after rosin/paraffin depilation; assay type: in vivo; conditions: for Time from hair growth to the same length as the hair in the non-experimental area / Time to grow new hair / Time to match the length of hair in the non-experimental area: back hair removal area of mice; for Black skin duration / Skin black-turning time / Skin grayish-black-turning time: hair removal area on the back of mice; for Skin black-turning time / Skin grayish-black-turning time: after hair removal
Protocol: SPF grade C57BL/6 mice were selected and numbered according to their weight. They were randomly divided into compound group 1 (skin applied with 2% R-IMPP solution), compound group 2 (skin applied with 2% PF 06446846 solution), and compound group 3 (skin applied with 2% SBC-115076 solution), compound group 4 (skin applied with 2% SBC-110736 solution), monoclonal antibody group 1 (PCSK9subcutaneous injection monoclonal antibody ab81041, 5 mg/kg·d), monoclonal antibody group 2 (Subcutaneous injection of Evolocumab, 5 mg/kg·d), monoclonal antibody group 3 (subcutaneous injection of Alirocumab, 5 mg/kg·d), PCSK9 RNA interference group-1 (skin applied with 2% PCSK9 small interfering RNA-1 solution), PCSK9 RNA interference Group-2 (skin applied with 2% PCSK9 small interfering RNA-2 solution), PCSK9 RNA interference group-3 (skin applied with 2% PCSK9 small interfering RNA-3 solution), polypeptide group (subcutaneous injection of Abcam company ab32727, 3 mg/kg·d), positive control group (skin applied with 2% minoxidil solution), negative control group (skin applied with 60% ethanol), and model control group (skin applied with 60% ethanol), 10 mice in each group, half male and half female. After the mice were anesthetized with ether, they were coated on the back with a mixture of rosin and paraffin (1:1) after hot melting, and then peeled off after it solidified and hardened. The back of the mouse was cleaned to be hairless and without injuries. The depilation area was about 3 cm×4 cm. From the 2nd day after depilation, the corresponding drugs were applied to the hair removal area, twice a day, 0.5 mL per animal each time, and subcutaneously injected once a week.
From the second day after application, observe the daily color change of the skin on the back of the mice to determine the growth state of the hair follicles and visually observe the hair growth in the depilation area, and score the new hair growth in the depilation area once a day. Five mice in each group were reserved for 40 days of visual observation, and the growth of back hair was recorded.
On the 17th day, five mice in each group were sacrificed by cervical dislocation. The samples were taken from the same part of the back parallel to the spine, fixed with 10% formaldehyde, dehydrated, embedded in paraffin, sectioned, stained with HE, and sealed with neutral gum. Then the histology of hair follicles was observed under light microscope, and morphological staging of hair follicles was performed. According to the international hair cycle scoring method, the hair follicles were scored as follows: 100 points for growth stage VI, 200 points for early regression, 300 points for middle regression, and 400 points for late regression. 50 hair follicles were randomly selected from each mouse, the cycle of the hair follicles in each group was determined, and the average hair cycle score and the percentage of hair follicles in the growth phase VI, early regression, middle regression, and late regression were calculated.

| Molecule | Skin thickness [1] [mm] | Hair follicle area [1] | Sebaceous gland diameter [1] [mm] | Histological grading of acne: number of animals graded − [1] | Histological grading of acne: number of animals graded 1+ [1] | Histological grading of acne: number of animals graded 2+ [1] | Histological grading of acne: number of animals graded 3+ [1] | Time from hair growth to the same length as the hair in the non-experimental area [2] | Time to grow new hair [2] | Time to match the length of hair in the non-experimental area [2] | Black skin duration [2] | Skin black-turning time [2] | Skin grayish-black-turning time [2] |
| --- | --- | --- | --- | --- | --- | --- | --- | --- | --- | --- | --- | --- | --- |
| O=C(c1ccc(-n2nnc3cccnc32)cc1)N(c1ncccc1Cl)[C@@H]1CCCNC1 [Compound group 2, PF 06446846] | 0.1968 ± 0.0121 | 0.2353 ± 0.0812* mm^2 | 0.0467 ± 0.0313 | 7 | 2 | 1 | 0 | 10.46* days | 6.33* days | 17.69* days | 10.86* days | 5.45* days | 17.32* days |
| Cc1cc(C(=O)C2=C(O)C(=O)N(CCCN3CCOCC3)C2c2ccncc2)ccc1OCc1ccccc1 (stereo not shown) [Compound group 3, SBC-115076] | 0.2245 ± 0.0185 | 0.2836 ± 0.0851* mm^2 | 0.0542 ± 0.0346 | 5 | 3 | 2 | 0 | 11.52* days | 6.95* days | 19.35* days | 11.65* days | 5.63* days | 18.12* days |
| CC(=O)Nc1ccc(C(=O)N2CCN(c3ccc(C)cc3)CC2c2ccccc2)cc1 (stereo not shown) [Compound group 4, SBC-110736] | 0.2276 ± 0.0193 | 0.2853 ± 0.0879* mm^2 | 0.0561 ± 0.0362 | 5 | 2 | 3 | 0 | 11.87* days | 6.98* days | 18.46* days | 12.32* days | 5.78* days | 18.46* days |
| ALN-PCS [RNA interference group 3] | 0.1987 ± 0.0185 | 0.1921 ± 0.0933* mm^2 | 0.0615 ± 0.0476 | 5 | 4 | 1 | 0 | 14.26* days | 6.96* days | 21.38* days | 12.16* days | 6.08* days | 18.52* days |
| Alirocumab [Monoclonal antibody group 3] | 0.1547 ± 0.0149 | 0.1526 ± 0.0723* mm^2 | 0.0435 ± 0.0285 | 9 | 1 | 0 | 0 | 10.13* days | 6.06* days | 16.75* days | 13.43* days | 5.35* days | 16.65* days |
| Inclisran [RNA interference group 2] | 0.1856 ± 0.0179 | 0.1836 ± 0.0856* mm^2 | 0.0561 ± 0.0423 | 6 | 3 | 1 | 0 | 14.12* days | 6.92* days | 20.16* days | 11.87* days | 5.66* days | 18.23* days |
| Evolocumab (antibody, chains of the INN, looked up, V domains shown, PCSK9 monoclonal antibody jointly developed by Amgen and Astellas, trade name Repatha) VH: EVQLVQSGAEVKKPGASVKVSCKASGYTLTSYGISWVRQAPGQGLEWMGWVSFYNGNTNYAQKLQGRGTMTTDPSTSTAYMELRSLRSDDTAVYYCARGYGMDVWGQGTTVTVSS VL: ESALTQPASVSGSPGQSITISCTGTSSDVGGYNSVSWYQQHPGKAPKLMIYEVSNRPSGVSNRFSGSKSGNTASLTISGLQAEDEADYYCNSYTSTSMVFGGGTKLTVL | 0.1532 ± 0.0156 | 0.1533 ± 0.0562* mm^2 | 0.0432 ± 0.0267 | 9 | 1 | 0 | 0 | 9.89* days | 5.78* days | 16.68* days | 10.21* days | 5.23* days | 16.83* days |
